Patent publication US20230212225A1, “PEPTIDE COMPOSTIONS AND METHODS FOR TREATING TAUOPATHIES” (AXOLTIS PHARMA, priority 2019, published 2023)
Where a SMILES comes first, the peptide text is derived from it.

Legend:
[1] = system: Aβ25-35-induced short-term memory deficits; experiment: Late-stage efficacy: Y-maze with treatment started at D11; format: in vivo, mice
Protocol: Seven days after ICV injection of Aβ25-35 peptide (D08), all animals were tested for spontaneous alternation performance in the Y-maze, an index of spatial working memory (short-term memory test). Each mouse was placed at the end of one arm and allowed to move freely through the maze during an 8 min session. An alternation is defined as entries into all three arms on consecutive occasions. The number of maximum alternations is therefore the total number of arm entries minus two and the percentage of alternation is calculated as (actual alternations / maximum alternations) x 100. This parameter includes the percentage of alternation (memory index) (Maurice et al., 1996, 1998; Meunier et al., 2006).
The efficacy of NX210 and NX218 SCO-Spondin derived peptides was therefore assessed during this late-stage physiopathology setting. Specifically, the administrations of NX210, NX218 or vehicle were started at D11 and were repeated once a day until the end of the experiment.
All animals were tested for spontaneous alternation performance in the Y-maze, an index of short-term memory (see Example 3 for method details) from D08 (i.e. pre-treatment values) and then once a week for three weeks (D15, D22, D29).

[2] = system: Aβ25-35-induced spatial working memory deficits; experiment: Place learning in the Morris water-maze (MWM), D09-D14; format: in vivo, mice; conditions: IP 2 mg/kg once a day
Protocol: The examples are using a model of Tauopathies. In this model, mice were injected intracerebroventricularly (ICV) at Day 01 (D01) with Aβ25-35 peptide (or with scrambled-Aβ peptide (Sc.Aβ) for Sham animals). This severe animal model recapitulates modulations of specific biomarkers (including deposits of brain Amyloid Beta1-42 and hyperphosphorylated Tau protein) involved in the physiopathology and the progression of human Tauopathies, as well as strong cognitive deficits (memory loss) as encountered by the patients (Maurice et al., 1996, 1998, 2013; Meunier et al., 2006).
After the Y-Maze and instead of performing the STPA test, some animals performed the Morris Water-Maze (MWM) test in order to assess spatial working memory deficits (a six-day test from D09 to D14). This gold-standard test consists in a circular pool filled with opaque water placed in a room with external cues (sink, contrasted posters, shelves). A platform is immersed under the water surface during acquisition. Training consists in 3 swims per day for 5 days, performed between D09 to D13, with a 20 min inter-trial time. Each mouse is allowed to swim for 90 sec in order to find the platform, and to stay on it for 20 sec.
A probe test (PT) is performed 24 h after the last swim on D14. For the PT, the platform is removed, and each animal is allowed to swim for 60 sec. The start position for each mouse corresponds to one of two positions remote from the platform location in a counterbalanced order. The platform quadrant is named ‘target’ and other quadrants (opposite, adjacent right and adjacent left) are named ‘other’ during the PT. The time spent in each quadrant is recorded. The results are expressed as the percentage of time spent in the target quadrant compared to the mean percentage of time spent in the three other quadrants.
Every day, the latencies to find the platform during the first (swim1), second (swim2), third (swim3), […] trials were monitored and averaged in this six-day experiment (Maurice et al., 2013).

[3] = D08, pre-treatment value, IP 2 mg/kg once a day started at D11
[4] = D15, IP 2 mg/kg once a day started at D11
[5] = D22, IP 2 mg/kg once a day started at D11
[6] = D29, IP 2 mg/kg once a day started at D11

## N=C(N)NCCC[C@H](NC(=O)[C@H](CO)NC(=O)[C@H](CS)NC(=O)[C@H](CO)NC(=O)[C@H](CO)NC(=O)[C@H](Cc1c[nH]c2ccccc12)NC(=O)CNC(=O)[C@H](CO)NC(=O)[C@@H](N)Cc1c[nH]c2ccccc12)C(=O)N[C@@H](CO)C(=O)N[C@@H](CS)C(=O)NCC(=O)O [NX210, W-S-G-W-S-S-C-S-R-S-C-G] (H-WSGWSSCSRSCG-OH; N-terminus and C-terminus assumed)
[1]; [3]
  Y-maze (D08) % (Sc.Aβ / D11 vhc = 100): 55%
  Y-maze (D08) Mean, percentage of alternation: 39.17%
[1]; D15, five daily administrations, 2 mg/kg started at D11
  effect on short-term working memory deficits at D15, in words: tendency to rescue
[1]; [4]
  Y-maze (D15) % (Sc.Aβ / D11 vhc = 100): 71%
  Y-maze (D15) Mean, percentage of alternation: 55.55%
[1]; D22, 12 day-treatment, 2 mg/kg started at D11
  effect on working memory deficits at D22, in words: significantly rescued
[1]; [5]
  Y-maze (D22) % (Sc.Aβ / D11 vhc = 100): 82%
  Y-maze (D22) Mean, percentage of alternation: 60.08%
[1]; D29, 19 day-treatment, 2 mg/kg started at D11
  effect on memory deficits at D29, in words: fully restored
[1]; [6]
  Y-maze (D29) % (compared to Sham group): 97%
  Y-maze (D29) Mean, percentage of alternation: 74.73%
[2]
  effect on learning profile and spatial memory deficits (MWM), in words: significantly rescued
[2]; D14
  MWM - Probe test, mean percentage of time spent in the three other quadrants (Other): 20.30%
[2]; fifth training day
  MWM - Learning profile, Mean time spent to find the platform (last block, heading missing): 24.25 s
[2]; training Day 1
  MWM - Learning profile - Day 1, Mean time spent to find the platform: 79.67 s
[2]; training Day 2
  MWM - Learning profile - Day 2, Mean time spent to find the platform: 53.58 s
[2]; training Day 3
  MWM - Learning profile - Day 3, Mean time spent to find the platform: 35.83 s
[2]; training Day 4
  MWM - Learning profile - Day 4, Mean time spent to find the platform: 25.92 s
